This note sets out measurements from ChEMBL document CHEMBL4706531, “Discovery of Novel c-Mesenchymal-Epithelia transition factor and histone deacetylase dual inhibitors” (Eur J Med Chem, 2020).

The structures appear in SMILES notation. The source made the active and inactive calls. The calls are words filed in the database; no cut-off is given here. Where only a bound is given, the exact number is not on record here.

The subject of one experiment is HCT-116. As to the kind of experiment: cells. In kind it is functional, cell-based. Conditions: Homo sapiens, HCT-116, 72 h.
Another experiment relates to MCF7. Kind of experiment: cells. Conditions: Homo sapiens, MCF7, 72 h. Format: functional, cell-based.
Another experiment deals with A549. As to the kind of experiment: cells. Format: functional, cell-based. The settings on record: Homo sapiens, A549, 72 h.
Experiment [1] addresses T1, Histone deacetylase 1 (Homo sapiens, UniProt Q13547). Conditions: Sf9, dose 100.0 nM, time 75.0 min.
Experiment [2] deals with T2, Hepatocyte growth factor receptor (Homo sapiens, UniProt P08581). Conditions: dose 100.0 nM, time 10.0 min.
T2 sequence (P08581 whole entry, the tested form may be a part): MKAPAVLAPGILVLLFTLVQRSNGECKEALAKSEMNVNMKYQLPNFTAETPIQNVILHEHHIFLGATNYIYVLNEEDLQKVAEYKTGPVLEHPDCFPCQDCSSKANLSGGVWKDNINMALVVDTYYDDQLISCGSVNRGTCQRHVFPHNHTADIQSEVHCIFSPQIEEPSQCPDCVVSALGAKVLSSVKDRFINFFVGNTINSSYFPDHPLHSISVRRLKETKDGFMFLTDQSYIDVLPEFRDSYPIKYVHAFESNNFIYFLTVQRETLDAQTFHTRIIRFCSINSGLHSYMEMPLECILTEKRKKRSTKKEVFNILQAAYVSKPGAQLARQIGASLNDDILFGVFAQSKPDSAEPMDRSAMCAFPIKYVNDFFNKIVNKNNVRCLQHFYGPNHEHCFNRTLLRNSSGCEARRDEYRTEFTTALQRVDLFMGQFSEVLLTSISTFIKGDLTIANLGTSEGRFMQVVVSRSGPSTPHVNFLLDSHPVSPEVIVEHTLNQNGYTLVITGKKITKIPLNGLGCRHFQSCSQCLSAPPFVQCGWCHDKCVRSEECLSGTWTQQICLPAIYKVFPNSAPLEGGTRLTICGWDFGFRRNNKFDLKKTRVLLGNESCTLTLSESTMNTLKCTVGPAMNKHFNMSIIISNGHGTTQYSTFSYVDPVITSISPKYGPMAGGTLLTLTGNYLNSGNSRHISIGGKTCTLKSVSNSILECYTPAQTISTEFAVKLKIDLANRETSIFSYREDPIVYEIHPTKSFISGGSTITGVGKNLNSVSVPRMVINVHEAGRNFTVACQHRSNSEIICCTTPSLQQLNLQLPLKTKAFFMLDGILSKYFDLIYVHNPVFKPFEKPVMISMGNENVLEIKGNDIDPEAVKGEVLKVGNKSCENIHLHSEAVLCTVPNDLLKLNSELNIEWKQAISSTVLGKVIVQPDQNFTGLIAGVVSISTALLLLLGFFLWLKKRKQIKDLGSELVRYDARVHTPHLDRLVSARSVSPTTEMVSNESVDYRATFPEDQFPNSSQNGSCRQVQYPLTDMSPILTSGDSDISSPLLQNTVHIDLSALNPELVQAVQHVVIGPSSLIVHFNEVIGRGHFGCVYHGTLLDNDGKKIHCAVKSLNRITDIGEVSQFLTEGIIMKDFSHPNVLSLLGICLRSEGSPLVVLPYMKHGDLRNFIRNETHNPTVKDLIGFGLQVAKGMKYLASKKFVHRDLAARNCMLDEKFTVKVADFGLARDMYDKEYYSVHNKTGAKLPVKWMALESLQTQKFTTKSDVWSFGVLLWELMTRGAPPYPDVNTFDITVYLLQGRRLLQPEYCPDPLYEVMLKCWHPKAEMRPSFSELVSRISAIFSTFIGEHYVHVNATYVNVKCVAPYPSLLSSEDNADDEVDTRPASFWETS
The target in experiment [3] is T1, Histone deacetylase 1. Kind of experiment: Inhibition of human C-terminal Flag tagged HDAC1 (1 to 482 residues) expressed in SF9 cells using Ac-peptide substrate preincubated for 15 mins followed by substrate addition and measured after 60 mins by microplate reader method.
For experiment [4], the target named is T2, Hepatocyte growth factor receptor. As to the kind of experiment: Inhibition of c-MET(unknown origin) using FAM labelled peptide substrate preincubated for 10 mins followed by substrate addition and measured by microplate reader method.

T1 sequence (Q13547 whole entry): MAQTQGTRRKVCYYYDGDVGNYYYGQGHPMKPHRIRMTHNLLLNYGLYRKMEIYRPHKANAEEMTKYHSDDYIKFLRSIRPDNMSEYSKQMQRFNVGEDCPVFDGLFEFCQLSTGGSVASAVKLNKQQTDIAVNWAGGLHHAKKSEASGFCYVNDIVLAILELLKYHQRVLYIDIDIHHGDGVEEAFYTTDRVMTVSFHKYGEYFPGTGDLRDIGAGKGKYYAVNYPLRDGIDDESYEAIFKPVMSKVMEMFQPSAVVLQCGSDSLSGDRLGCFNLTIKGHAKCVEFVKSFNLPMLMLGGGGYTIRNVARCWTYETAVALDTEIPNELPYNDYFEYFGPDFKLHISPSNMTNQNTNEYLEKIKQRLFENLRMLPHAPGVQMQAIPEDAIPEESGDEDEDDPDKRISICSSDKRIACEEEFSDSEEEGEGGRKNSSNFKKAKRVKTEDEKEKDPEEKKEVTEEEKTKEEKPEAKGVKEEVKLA
Description for A549: Antiproliferative activity against human A549 cells assessed as inhibition of cell proliferation measured after 72 hrs by MTT assay
Description for HCT-116: Antiproliferative activity against human HCT-116 cells assessed as inhibition of cell proliferation measured after 72 hrs by MTT assay
Description for MCF7: Antiproliferative activity against human MCF7 cells assessed as inhibition of cell proliferation measured after 72 hrs by MTT assay

Take `COc1cc2c(Oc3ccc(NC(=O)c4nn(-c5ccccc5F)cc(C)c4=O)cc3F)ccnc2cc1OCCCC(=O)NO`: the 50% inhibitory concentration (IC50) with HCT-116 came out at 1120 nM; in the experiment with MCF7, 2100 nM; in the experiment on A549 it was 1370 nM. The inhibition is 7.1% at Histone deacetylase 1 [1] and 94% in experiment [2].

With `COc1cc2c(Oc3ccc(NC(=O)c4nn(-c5ccccc5)cc(C)c4=O)cc3F)ccnc2cc1OCCCC(=O)NO`, the figures for the IC50 in the experiment with HCT-116, in the experiment with MCF7 and in the experiment with A549 were 660 nM, 1900 nM and 1900 nM, respectively. Also, the inhibition against Histone deacetylase 1 [1] came to 2.5%; in experiment [2], 98.3%.

For `COc1cc2c(Oc3ccc(NC(=O)c4nn(-c5ccccc5C)ccc4=O)cc3F)ccnc2cc1OCCCC(=O)NO`, the half-inhibitory concentration (IC50) in the experiment with HCT-116 is 3980 nM; with MCF7, 3200 nM; in the experiment with A549, 5740 nM. In addition, the inhibition on Histone deacetylase 1 [1] was found to be 6%; in experiment [2], 93.5%.

As for `COc1cc2c(Oc3ccc(NC(=O)c4nn(-c5ccccc5F)cc(C)c4=O)cc3F)ccnc2cc1OCCCCCC(=O)NO`, the IC50 with HCT-116 was 590 nM; in the experiment with MCF7 it was 2320 nM; in the experiment with A549, 1320 nM. For the same molecule, the inhibition at Histone deacetylase 1 [1] turned out to be 61.1%; in experiment [2] it was 89.1%.

In the case of `COc1cc2c(Oc3ccc(NC(=O)c4nn(-c5ccccc5F)cc(C)c4=O)cc3)ccnc2cc1OCCCC(=O)NO`, the values for the half-inhibitory concentration (IC50) with HCT-116, in the experiment with MCF7 and in the experiment on A549 were 950 nM, 2650 nM and 3920 nM, respectively. Also, the inhibition at Histone deacetylase 1 [1] was determined as 9.2%; in experiment [2], 90.8%.

`COc1cc2c(Oc3ccc(NC(=O)c4nn(-c5cccc(C)c5)cc(C)c4=O)cc3)ccnc2cc1OCCCCCCC(=O)NO`: the IC50 was 370 nM in the experiment with HCT-116, 1680 nM in the experiment on MCF7 and 280 nM in the experiment with A549. The inhibition came to 62% against Histone deacetylase 1 [1] and 76.5% in experiment [2].

`COc1cc2c(Oc3ccc(NC(=O)c4nn(-c5ccccc5)cc(C)c4=O)cc3)ccnc2cc1OCCCCCCC(=O)NO`: the IC50 against Histone deacetylase 1 [3] stood at 34 nM; in experiment [4], 19.9 nM; in the experiment with HCT-116, 150 nM; in the experiment with MCF7, 1610 nM; in the experiment on A549, 420 nM. The inhibition against Histone deacetylase 1 [1] was found to be 86.6%; in experiment [2], 88.6%.

Turning to `COc1cc2nccc(Oc3ccc(NC(=O)C4(C(=O)Nc5ccc(F)cc5)CC4)cc3)c2cc1OC` [CABOZANTINIB], the 50% inhibitory concentration (IC50) in the experiment with HCT-116 is 4670 nM; in the experiment with MCF7, 5980 nM; in the experiment with A549, 7800 nM.

On to `COc1cc2c(Oc3ccc(NC(=O)c4nn(-c5ccccc5C(F)(F)F)ccc4=O)cc3)ccnc2cc1OCC(=O)NO`, for which the half-maximal inhibitory concentration (IC50) in the experiment with HCT-116 was 9500 nM; with MCF7 it was 6320 nM; in the experiment on A549 it was more than 20000 nM. In addition, the inhibition against Histone deacetylase 1 [1] was found to be 1.2%; in experiment [2] it was 56.3%.

`COc1cc2c(Oc3ccc(NC(=O)c4nn(-c5ccccc5)cc(C)c4=O)cc3F)ccnc2cc1OCCCN1CCOCC1`: the IC50 worked out at 7.42 nM in experiment [4], 370 nM in the experiment on HCT-116, 630 nM in the experiment with MCF7 and 1120 nM in the experiment on A549. In addition, the inhibition in experiment [2] stood at 93.8%.

For `COc1cc2c(Oc3ccc(NC(=O)c4nn(-c5ccc(F)c(Cl)c5)cc(C)c4=O)cc3)ccnc2cc1OCCCCCCC(=O)NO`, the IC50 came to 370 nM with HCT-116, 2200 nM in the experiment on MCF7 and 380 nM with A549. Moreover, the inhibition stood at 40% against Histone deacetylase 1 [1] and 61.1% in experiment [2].

For `COc1cc2c(Oc3ccc(NC(=O)c4nn(-c5ccccc5C)cc(C)c4=O)cc3F)ccnc2cc1OCCCC(=O)NO`, the IC50 with HCT-116 worked out at 2040 nM; with MCF7 it was 2600 nM; in the experiment with A549, 2090 nM. Besides, the values for the inhibition (at Histone deacetylase 1 [1]; in experiment [2]) were 8% and 95.5%, respectively.

`COc1cc2c(Oc3ccc(NC(=O)c4nn(-c5ccccc5C)ccc4=O)cc3)ccnc2cc1OCCCCCC(=O)NO`: the concentration for half-maximal inhibition (IC50) in the experiment on HCT-116 worked out at 700 nM; in the experiment with MCF7, 4360 nM; in the experiment on A549 it was 3920 nM. Moreover, the inhibition at Histone deacetylase 1 [1] turned out to be 62.1%; in experiment [2], 90.4%.

For the molecule `COc1cc2c(Oc3ccc(NC(=O)c4nn(-c5ccccc5)cc(C)c4=O)cc3F)ccnc2cc1OCCCCCC(=O)NO`, the IC50 with HCT-116 was determined as 690 nM; in the experiment with MCF7, 2330 nM; in the experiment on A549, 4170 nM. In addition, the inhibition came out at 53.3% against Histone deacetylase 1 [1] and 95% in experiment [2].

Take `COc1cc2c(Oc3ccc(NC(=O)c4nn(-c5ccc(C)cc5C)cc(C)c4=O)cc3)ccnc2cc1OCCCCCCC(=O)NO`: the values for the half-maximal inhibitory concentration (IC50) in the experiment with HCT-116, in the experiment on MCF7 and with A549 were 440 nM, 2430 nM and 1840 nM, respectively. In addition, the figures for the inhibition (at Histone deacetylase 1 [1]; in experiment [2]) were 65.3% and 63.8%, respectively.

Take `COc1cc2c(Oc3ccc(NC(=O)c4nn(-c5ccc(C)cc5)cc(C)c4=O)cc3)ccnc2cc1OCCCCCCC(=O)NO`: the half-maximal inhibitory concentration (IC50) in the experiment on HCT-116 came out at 400 nM; in the experiment with MCF7, 2560 nM; in the experiment with A549, 160 nM. Also, the inhibition was found to be 47.6% against Histone deacetylase 1 [1] and 72.8% in experiment [2].

Take `COc1cc2c(Oc3ccc(NC(=O)c4nn(-c5ccccc5)ccc4=O)cc3)ccnc2cc1OCCCC(=O)NO`: the values for the half-maximal inhibitory concentration (IC50) with HCT-116, in the experiment with MCF7 and with A549 were 940 nM, 7410 nM and 9260 nM, respectively. Further, the inhibition against Histone deacetylase 1 [1] stood at 12.6%; in experiment [2], 96.4%.

In the case of `COc1cc2c(Oc3ccc(NC(=O)c4nn(-c5ccccc5C)cc(C)c4=O)cc3)ccnc2cc1OCCCC(=O)NO`, the 50% inhibitory concentration (IC50) amounted to 640 nM with HCT-116, 1600 nM in the experiment with MCF7 and 4460 nM with A549. Further, the inhibition against Histone deacetylase 1 [1] is 10.7%; in experiment [2] it was 98.5%.

In the case of `COc1cc2c(Oc3ccc(NC(=O)c4nn(-c5ccccc5C)cc(C)c4=O)cc3)ccnc2cc1OCCCCCC(=O)NO`, the concentration for half-maximal inhibition (IC50) was determined as 290 nM with HCT-116, 1830 nM in the experiment with MCF7 and 1820 nM in the experiment on A549. Also, the inhibition at Histone deacetylase 1 [1] was 36.9%; in experiment [2], 95.7%.

For the molecule `COc1cc2c(Oc3ccc(NC(=O)c4nn(-c5ccccc5C)cc(C)c4=O)cc3)ccnc2cc1OCC(=O)NO`, the 50% inhibitory concentration (IC50) in the experiment with HCT-116 amounted to 9260 nM; in the experiment with MCF7, 8780 nM; with A549, 5980 nM. On Histone deacetylase 1 [1], the inhibition entry was “inactive”. In addition, the inhibition in experiment [2] was 63.5%.

For `O=C(CCCCCCC(=O)Nc1ccccc1)NO`, the inhibition in experiment [2] turned out to be 2.8%.

Consider `COc1cc2c(Oc3ccc(NC(=O)c4nn(-c5ccc(Cl)c(C(F)(F)F)c5)cc(C)c4=O)cc3)ccnc2cc1OCC(=O)NO`, for which the IC50 with HCT-116 is 350 nM; with MCF7, 3480 nM; in the experiment on A549, 1590 nM. For the same molecule, the results for the inhibition (at Histone deacetylase 1 [1]; in experiment [2]) were 5.2% and 50.2%, respectively.

Turning to `COc1cc2c(Oc3ccc(NC(=O)c4nn(-c5cccc(C(F)(F)F)c5)cc(C)c4=O)cc3)ccnc2cc1OCCCCCCC(=O)NO`, the IC50 in the experiment with HCT-116 was 590 nM; with MCF7, 750 nM; in the experiment on A549, 780 nM. The inhibition against Histone deacetylase 1 [1] stood at 35.3%; in experiment [2], 46.3%.

Consider `COc1cc2c(Oc3ccc(NC(=O)c4nn(-c5ccccc5C)cc(C)c4=O)cc3)ccnc2cc1OCCCCCCC(=O)NO`, for which the results for the IC50 in the experiment with HCT-116, with MCF7 and in the experiment on A549 were 660 nM, 1830 nM and 3130 nM, respectively. Besides, the inhibition against Histone deacetylase 1 [1] was determined as 89.1%; in experiment [2] it was 78.6%.

What is called IC50 is the midpoint of a concentration-inhibition curve. The inhibition is the share of the control response that was lost under treatment.
